Data taken from ChEMBL document CHEMBL1201862, “PubChem BioAssay data set” (2004).
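In this assay, cells in 96-well plates receive the compound at five concentrations for 48 hours. Endpoints are linearly interpolated between the surrounding concentrations. GI50 marks 50% less growth.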 Active and inactive are the calls of the source. Rule as the data show it: active = GI50 up to about 1.1 µM and inactive = higher.

Legend:
Assay in all cases: NCI anticancer screen, dose series, 48 h
BT-549 = tested on: BT-549
MDA-N = tested on: MDA-N
M19-MEL = tested on: M19-MEL
LXFL 529 = tested on: LXFL 529
786-0 = tested on: 786-0
XF498 = tested on: XF498
SNB-78 = tested on: SNB-78
HOP-18 = tested on: HOP-18
RXF 631 = tested on: RXF 631

Measured: GI50

COc1ccc(-c2c3c(nc4nc(SCCc5ccccc5)nc(N)c24)CCCC3)cc1OC
inactive: BT-549 > 100 µM | MDA-N > 100 µM

O=C(N/N=C/c1ccccc1)c1c(F)c(F)c(F)c(F)c1F
inactive: BT-549 > 100 µM | MDA-N 28.8 µM

C[C@H](O)C(=O)SC[C@H](NC(=O)CC[C@@H](N)C(=O)O)C(=O)NCC(=O)O
inactive: M19-MEL > 100 µM | LXFL 529 > 100 µM

N#CCc1c(F)c(F)c(F)c(F)c1F
inactive: BT-549 > 100 µM | MDA-N > 100 µM | 786-0 > 100 µM

C/C=C/C1=CC(=O)C(O)C1O (stereo not given)
inactive: XF498 18.5 µM | SNB-78 57.8 µM | M19-MEL 26.7 µM | HOP-18 12.4 µM

CC1CC/C(=C\c2ccc(Cl)cc2)C(=O)/C1=C\c1ccc(Cl)cc1 (stereo not given)
inactive: BT-549 29.9 µM | MDA-N 51.2 µM | 786-0 34.1 µM

Cc1cccc(C(C)C)c1NC(=O)/C(Cc1c([N+](=O)[O-])cccc1[N+](=O)[O-])=N/NC(=O)CC#N
inactive: RXF 631 > 100 µM | M19-MEL > 100 µM | LXFL 529 > 100 µM | HOP-18 > 100 µM | 786-0 > 100 µM

COc1ccc(/N=C(\C)c2ccncc2)cc1
inactive: BT-549 64 µM | MDA-N > 100 µM | 786-0 > 100 µM

O=C1C[C@H](Sc2ccccc2)C2(OCCO2)[C@@H](Sc2ccccc2)C1
inactive: BT-549 1.97 µM | MDA-N 2.2 µM | 786-0 2.82 µM

Cc1ccc(S(=O)(=O)N2c3ccccc3[C@H]3CCc4c([nH]c5ccccc45)[C@H]32)cc1
inactive: BT-549 > 100 µM | MDA-N 30 µM

COC(=O)C(=O)Cc1nc2ccccc2o1
inactive: XF498 > 100 µM | SNB-78 > 100 µM | RXF 631 > 100 µM | M19-MEL > 100 µM | LXFL 529 > 100 µM

CCCCCCCSc1nc2c(C(=O)OCC)ncn2c2ccccc12
inactive: XF498 > 100 µM | M19-MEL > 100 µM | LXFL 529 > 100 µM

O=C(c1nc2ccc(Cl)cc2nc1O)C(O)c1ccccc1 (stereo not given)
inactive: SNB-78 > 100 µM | M19-MEL > 100 µM | LXFL 529 32.7 µM | 786-0 > 100 µM

N#C/C(=C1/Sc2c(nc[nH]c2=O)N1c1ccccc1)c1nc2ccccc2[nH]1
inactive: XF498 > 100 µM | SNB-78 > 100 µM | M19-MEL > 100 µM | LXFL 529 > 100 µM

Cc1csc(/N=C(/NCCN2CCOCC2)Nc2nc(C)cs2)n1
inactive: XF498 > 100 µM | SNB-78 > 100 µM | M19-MEL > 100 µM | HOP-18 > 100 µM

c1ccc2c(c1)CCCC/C2=N/OCC1CO1 (stereo not given)
inactive: XF498 29.4 µM | SNB-78 57.4 µM | LXFL 529 36.3 µM | HOP-18 34.7 µM

Cc1ccc(/N=N/C(=N\NC(=O)c2ccc(C)cc2)c2ccc(N(CCC#N)CCC#N)cc2C)cc1
inactive: MDA-N 29.7 µM

O=C(O)CN(CC(=O)O)C(C(=O)O)c1ccccc1 (stereo not given)
inactive: BT-549 > 100 µM | MDA-N > 100 µM | 786-0 > 100 µM

COC(=O)C(C/C=C(\C)c1ccc(Cl)cc1)C(C)=O (stereo not given)
inactive: XF498 > 65.8 µM | SNB-78 > 56.8 µM | M19-MEL 32.7 µM | HOP-18 40.3 µM

O=C1c2ccccc2C(=O)N1/N=C1/SC(=N\c2ccccc2)/C(=N/c2ccccc2)N1c1ccccc1
inactive: BT-549 > 48.4 µM | 786-0 11.4 µM

Cn1cc(NC(=O)[C@H]2CCC(N)=N2)cc1C(=O)NCCC(=N)N
inactive: XF498 > 100 µM | SNB-78 > 100 µM | LXFL 529 > 100 µM | HOP-18 > 100 µM | 786-0 > 100 µM

Cc1ccc(NC(=O)C(Cc2c[nH]c3ccccc23)NC(=O)Oc2ccccc2)cc1C (stereo not given)
inactive: BT-549 30.6 µM | MDA-N 55.8 µM

Fc1ccc2c(c1)SC1=Nc3sc4cc(F)ccc4[n+]3CN12
inactive: BT-549 14.8 µM | 786-0 18.3 µM

CCO[C@]12C[C@H](OC)[C@@]3(O)CC(C1[C@H]3O)C13C4C2[C@H](OC)C1[C@](COC)(CN4CC)[C@H](O)C[C@@H]3OC (stereo not given in full)
inactive: SNB-78 > 100 µM | M19-MEL > 100 µM | LXFL 529 > 100 µM

C=CC(C)C1(CCCOCc2ccccc2)C(=S)N2CCC3(CC24CCCC14)OCCO3 (stereo not given)
inactive: XF498 3.06 µM | SNB-78 9.48 µM | M19-MEL 25.6 µM | LXFL 529 6.1 µM | HOP-18 > 100 µM
